Reference: ChEMBL document CHEMBL1158048, “19-Nor- and 18,20-epoxy-cardenolides from the leaves of Calotropis gigantea” (J Nat Prod, 2006)
Calls of active or inactive are those of the source. No cut-off for these calls is given here.

What was measured:
KB [1] = test: Cytotoxicity against human KB cells by SRB assay; assay type: functional, cell-based
[2] = Cytotoxicity against human BC cells by SRB assay; assay type: functional, cell-based
NCI-H187 [3] = test: Cytotoxicity against human NCI-H187 cells by SRB assay; assay type: functional, cell-based
NCI-H187 [4] = test: Cytotoxicity against human NCI-H187 cells at 20 ug/ml by SRB assay; assay type: functional, cell-based
BC = test: Cytotoxicity against human BC cells at 20 ug/ml by SRB assay; assay type: functional, cell-based
KB [5] = test: Cytotoxicity against human KB cells at 20 ug/ml by SRB assay; assay type: functional, cell-based
Plasmodium falciparum = test: Antimalarial activity after 48 hrs against multidrug-resistant Plasmodium falciparum K1; assay type: functional, organism-based

| Structure (SMILES) | IC50 (KB [1]) [nM] | IC50 [2] [nM] | IC50 (NCI-H187 [3]) [nM] | Activity (NCI-H187 [4]) | Activity (BC) | Activity (KB [5]) | Activity (Plasmodium falciparum) |
| --- | --- | --- | --- | --- | --- | --- | --- |
| C[C@@H]1C[C@H](O)[C@]2(O)O[C@@H]3C[C@@]4(C=O)[C@@H](CC[C@@H]5[C@@H]4CC[C@]4(C)[C@@H](C6=CC(=O)OC6)C[C@@H](O)[C@]54O)C[C@H]3O[C@@H]2O1 | 602 | 547 | 3330 | – | – | – | – |
| C[C@@H]1C[C@H](O)[C@]2(O)O[C@@H]3C[C@@]4(C=O)[C@@H](CC[C@@H]5[C@@H]4CC[C@]46CO[C@]7(COC(=O)C7)[C@H]4CC[C@]56O)C[C@H]3O[C@@H]2O1 | 1290 | 2210 | 3640 | – | – | – | – |
| COC(=O)[C@@]1(O)C[C@@H](C)O[C@H]1O[C@@H]1C[C@@H]2CC[C@@H]3[C@H](CC[C@]4(C)[C@@H](C5=CC(=O)OC5)CC[C@]34O)[C@@]2(C(=O)O)C[C@H]1O | – | – | – | inactive | inactive | inactive | – |
| COC(=O)[C@@]1(O)C[C@@H](C)O[C@H]1O[C@@H]1C[C@@H]2CC[C@@H]3[C@H](CC[C@]4(C)[C@@H](C5=CC(=O)OC5)CC[C@]34O)[C@@]2(C=O)C[C@H]1O [CALACTINICACID METHYL ESTER] | 3730 | 5650 | 14400 | – | – | – | – |
| C[C@@H]1C[C@@H](O)[C@]2(O)O[C@@H]3C[C@@]4(C=O)[C@@H](CC[C@@H]5[C@@H]4CC[C@]4(C)[C@@H](C6=CC(=O)OC6)CC[C@]54O)C[C@H]3O[C@@H]2O1 [CALACTIN] | 41.3 | 20.7 | 345 | – | – | – | inactive |
| C[C@@H]1C[C@H](O)[C@]2(O)O[C@@H]3C[C@@]4(C=O)[C@@H](CC[C@@H]5[C@@H]4CC[C@]4(C)[C@@H](C6=CC(=O)OC6)CC[C@]54O)C[C@H]3O[C@@H]2O1 [CALOTROPIN] | 62 | 41.3 | 471 | – | – | – | inactive |
| C[C@]12CC[C@H](O)C[C@H]1CC[C@@H]1[C@@H]2CC[C@]2(C)[C@@H](C3=CC(=O)OC3)CC[C@]12O [DIGITOXIGENIN] | 9610 | 8950 | 9770 | – | – | – | inactive |
| COc1cccc2c1C(=O)c1c(O)c3c(c(O)c1C2=O)C[C@@](O)(C(=O)CO)C[C@@H]3O[C@H]1C[C@H](N)[C@H](O)[C@H](C)O1 [DOXORUBICIN] | 219 | 288 | 40.5 | – | – | – | – |
| Cc1c2ccncc2c(C)c2c1[nH]c1ccccc12 [ELLIPTECINE] | 812 | 682 | 2230 | – | – | – | – |
